Data published in patent publication US20150105252A1, “SUBSTITUTED PYRAZOLES AS HERBICIDES” (E I DU PONT DE NEMOURS AND COMPANY, priority 2013, published 2015).

Legend:
[1] = tested on: barnyardgrass; experiment: Test A preemergence; format: in vivo, Echinochloa crus-galli; conditions: for Barnyardgrass plant response rating (0 to 100 scale, 0 is no effect, 100 is complete control): visual injury approx. 10 days after treatment
Outline: (§1)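 Ratings express plant response from 0 (no effect) to 100 (complete control), judged visually against untreated controls after approximately 10 days in the greenhouse. Preemergence applications were made as directed soil sprays onto seeded loam–sand mix, and postemergence applications onto 2–10 cm plants at one- to two-leaf stage.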

[2] = tested on: crabgrass, large; experiment: Test A preemergence; format: in vivo, Digitaria sanguinalis; conditions: for Crabgrass, Large plant response rating (0 to 100 scale): visual injury approx. 10 days after treatment
Outline: as §1

[3] = tested on: foxtail, giant; experiment: Test A preemergence; format: in vivo, Setaria faberii; conditions: for Foxtail, Giant plant response rating (0 to 100 scale): visual injury approx. 10 days after treatment
Outline: as §1

[4] = tested on: morningglory; experiment: Test A preemergence; format: in vivo, Ipomoea spp.; conditions: for Morningglory plant response rating (0 to 100 scale): visual injury approx. 10 days after treatment; for Morningglory plant response rating: 0 to 100 scale
Outline: as §1

[5] = tested on: pigweed; experiment: Test A preemergence; format: in vivo, Amaranthus retroflexus; conditions: for Pigweed plant response rating (0 to 100 scale): visual injury approx. 10 days after treatment; for Pigweed plant response rating: 0 to 100 scale
Outline: as §1

[6] = tested on: velvetleaf; experiment: Test A preemergence; format: in vivo, Abutilon theophrasti; conditions: for Velvetleaf plant response rating (0 to 100 scale): visual injury approx. 10 days after treatment; for Velvetleaf plant response rating: 0 to 100 scale
Outline: as §1

[7] = tested on: wheat; experiment: Test A preemergence; format: in vivo, Triticum aestivum; conditions: preemergence; for Wheat plant response rating (0 to 100 scale): visual injury approx. 10 days after treatment
Outline: as §1

[8] = tested on: corn; experiment: Test A preemergence; format: in vivo, Zea mays; conditions: for Corn plant response rating (0 to 100 scale): visual injury approx. 10 days after treatment
Outline: as §1

[9] = tested on: barnyardgrass; experiment: Test A postemergence; format: in vivo, Echinochloa crus-galli; conditions: Postemergence
Outline: as §1

[10] = tested on: crabgrass, large; experiment: Test A postemergence; format: in vivo, Digitaria sanguinalis
Outline: as §1

[11] = tested on: foxtail, giant; experiment: Test A postemergence; format: in vivo, Setaria faberii
Outline: as §1

[12] = tested on: morningglory; experiment: Test A postemergence; format: in vivo, Ipomoea spp.
Outline: as §1

[13] = tested on: pigweed; experiment: Test A postemergence; format: in vivo, Amaranthus retroflexus
Outline: as §1

[14] = tested on: velvetleaf; experiment: Test A postemergence; format: in vivo, Abutilon theophrasti
Outline: as §1

[15] = tested on: wheat; experiment: Test A postemergence; format: in vivo, Triticum aestivum
Outline: as §1

[16] = tested on: corn; experiment: Test A postemergence; format: in vivo, Zea mays
Outline: as §1

[17] = tested on: rice; experiment: Test B flood; format: in vivo, Oryza sativa; conditions: 250 g ai/ha, visual rating on 0 to 100 scale (0 no effect, 100 complete control), 13 to 15 days
Experimental: (§2) Seeds selected from rice (Oryza sativa), sedge, umbrella (small-flower umbrella sedge Cyperus difformis), ducksalad (Heteranthera limosa), and barnyardgrass (Echinochloa crus-galli) were grown to the 2-leaf stage for testing. At time of treatment, test pots were flooded to 3 cm above the soil surface, treated by application of test compounds directly to the paddy water, and then maintained at that water depth for the duration of the test.
(§3) Treated plants and controls were maintained in a greenhouse for 13 to 15 days, after which time all species were compared to controls and visually evaluated. Plant response ratings, summarized in Table B, are based on a scale of 0 to 100 where 0 is no effect and 100 is complete control. A dash (-) response means no test result.

[18] = tested on: sedge, umbrella; experiment: Test B flood; format: in vivo, Cyperus difformis; conditions: 250 g ai/ha, visual rating on 0 to 100 scale (0 no effect, 100 complete control), 13 to 15 days
Experimental: as §2, §3

[19] = tested on: ducksalad; experiment: Test B flood; format: in vivo, Heteranthera limosa; conditions: 250 g ai/ha, visual rating on 0 to 100 scale (0 no effect, 100 complete control), 13 to 15 days
Experimental: as §2, §3

[20] = tested on: barnyardgrass; experiment: Test B flood; format: in vivo, Echinochloa crus-galli; conditions: 250 g ai/ha, visual rating on 0 to 100 scale (0 no effect, 100 complete control), 13 to 15 days
Experimental: as §2, §3

[21] = preemergence, 500 g ai/ha, visual injury after approx. 10 days, 0 to 100 scale (0 no effect, 100 complete control)
[22] = 125 g ai/ha, 0 to 100 scale, 0 no effect, 100 complete control
[23] = 500 g ai/ha, 0 to 100 scale (0 no effect, 100 complete control)
[24] = Postemergence, 125 g ai/ha, 0 to 100 scale, 0 no effect, 100 complete control
[25] = Postemergence, 500 g ai/ha, 0 to 100 scale (0 no effect, 100 complete control)
[26] = Preemergence, 500 g ai/ha, 0 to 100 scale, 0 no effect, 100 complete control
[27] = preemergence, 125 g ai/ha, visual injury, 0 to 100 scale, approx. 10 days
[28] = Preemergence, 500 g ai/ha, 0 no effect, 100 complete control
[29] = preemergence, 125 g ai/ha, visual injury, approx. 10 days
[30] = Postemergence, 500 g ai/ha, visual rating after approx. 10 days, 0 to 100 scale (0 no effect, 100 complete control)
[31] = postemergence, 125 g ai/ha, about 10 days, visual rating on 0 to 100 scale (0 no effect, 100 complete control)

CCCNC(=O)c1cc(CC)n(Cc2cc(C(F)(F)C(F)(F)F)nn2C)n1 [Compound 229]
Barnyardgrass plant response rating (0 to 100 scale, 0 is no effect, 100 is complete control) ([1]; preemergence, 125 g ai/ha): 50 | Barnyardgrass plant response rating [1, 21]: 100 | Crabgrass, Large plant response rating (0 to 100 scale) ([2]; preemergence, 125 g ai/ha): 100 | Crabgrass, Large plant response rating [2, 21]: 100 | Foxtail, Giant plant response rating (0 to 100 scale) ([3]; preemergence, 125 g ai/ha): 90 | Foxtail, Giant plant response rating [3, 21]: 100 | Morningglory plant response rating (0 to 100 scale) ([4]; preemergence, 125 g ai/ha): 50 | Pigweed plant response rating (0 to 100 scale) ([5]; preemergence, 125 g ai/ha): 100 | Velvetleaf plant response rating (0 to 100 scale) ([6]; preemergence, 125 g ai/ha): 40 | Wheat plant response rating (0 to 100 scale) ([7]; 125 g ai/ha): 20 | Corn plant response rating (0 to 100 scale) ([8]; preemergence, 125 g ai/ha): 10 | Corn plant response rating [8, 21]: 50 | Barnyardgrass plant response rating [9, 22]: 50 | Barnyardgrass plant response rating [9, 23]: 90 | Crabgrass, Large plant response rating [10, 24]: 50 | Crabgrass, Large plant response rating [10, 25]: 90 | Foxtail, Giant plant response rating [11, 24]: 60 | Foxtail, Giant plant response rating [11, 25]: 90 | Morningglory plant response rating [12, 24]: 70 | Morningglory plant response rating [12, 25]: 100 | Pigweed plant response rating [13, 24]: 90 | Pigweed plant response rating [13, 25]: 100 | Velvetleaf plant response rating [14, 24]: 50 | Velvetleaf plant response rating [14, 25]: 80 | Wheat plant response rating [15, 24]: 40 | Wheat plant response rating [15, 25]: 70 | Corn plant response rating [16, 24]: 40 | Corn plant response rating [16, 25]: 70 | Plant response rating, Rice [17]: 40 | Plant response rating, Sedge, Umbrella [18]: 95 | Plant response rating, Ducksalad [19]: 100 | Plant response rating, Barnyardgrass [20]: 60

Cc1cc(C(=O)NCC(F)(F)F)nn1Oc1ccnc(C(F)(F)F)c1 [Compound 79]
Barnyardgrass plant response rating [1, 26]: 70 | Barnyardgrass plant response rating [1, 27]: 10 | Crabgrass, Large plant response rating [2, 26]: 90 | Crabgrass, Large plant response rating [2, 27]: 60 | Foxtail, Giant plant response rating [3, 26]: 90 | Foxtail, Giant plant response rating [3, 27]: 10 | Morningglory plant response rating [4, 28]: 50 | Morningglory plant response rating [4, 29]: 0 | Pigweed plant response rating [5, 28]: 100 | Pigweed plant response rating [5, 29]: 30 | Velvetleaf plant response rating [6, 28]: 60 | Velvetleaf plant response rating [6, 29]: 0 | Wheat plant response rating ([7]; 125 g ai/ha, visual injury, 0 to 100 scale, approx. 10 days): 0 | Wheat plant response rating ([7]; 500 g ai/ha, visual injury after approx. 10 days, 0 to 100 scale (0 no effect, 100 complete control)): 20 | Corn plant response rating [8, 26]: 0 | Corn plant response rating [8, 27]: 0 | Barnyardgrass plant response rating [9, 22]: 0 | Barnyardgrass plant response rating ([9]; 500 g ai/ha, visual rating after approx. 10 days, 0 to 100 scale (0 no effect, 100 complete control)): 30 | Crabgrass, Large plant response rating [10, 30]: 60 | Crabgrass, Large plant response rating [10, 31]: 20 | Foxtail, Giant plant response rating [11, 30]: 30 | Foxtail, Giant plant response rating [11, 31]: 10 | Morningglory plant response rating [12, 30]: 70 | Morningglory plant response rating [12, 31]: 30 | Pigweed plant response rating [13, 30]: 60 | Pigweed plant response rating [13, 31]: 40 | Velvetleaf plant response rating [14, 30]: 50 | Velvetleaf plant response rating [14, 31]: 40 | Wheat plant response rating [15, 30]: 20 | Wheat plant response rating [15, 31]: 0 | Corn plant response rating [16, 30]: 10 | Corn plant response rating [16, 31]: 10 | Plant response rating, Rice [17]: 0 | Plant response rating, Sedge, Umbrella [18]: 0 | Plant response rating, Ducksalad [19]: 0 | Plant response rating, Barnyardgrass [20]: 0

CCc1cc(C(=O)NCC(F)(F)F)nn1Oc1cccc(C(F)(F)F)c1 [Compound 217]
Barnyardgrass plant response rating (0 to 100 scale, 0 is no effect, 100 is complete control) ([1]; preemergence, 125 g ai/ha): 0 | Barnyardgrass plant response rating [1, 21]: 20 | Crabgrass, Large plant response rating (0 to 100 scale) ([2]; preemergence, 125 g ai/ha): 50 | Crabgrass, Large plant response rating [2, 21]: 90 | Foxtail, Giant plant response rating (0 to 100 scale) ([3]; preemergence, 125 g ai/ha): 0 | Foxtail, Giant plant response rating [3, 21]: 40 | Morningglory plant response rating (0 to 100 scale) ([4]; preemergence, 125 g ai/ha): 0 | Pigweed plant response rating (0 to 100 scale) ([5]; preemergence, 125 g ai/ha): 20 | Velvetleaf plant response rating (0 to 100 scale) ([6]; preemergence, 125 g ai/ha): 0 | Wheat plant response rating (0 to 100 scale) ([7]; 125 g ai/ha): 0 | Corn plant response rating (0 to 100 scale) ([8]; preemergence, 125 g ai/ha): 0 | Corn plant response rating [8, 21]: 0 | Barnyardgrass plant response rating [9, 22]: 0 | Barnyardgrass plant response rating [9, 23]: 20 | Crabgrass, Large plant response rating [10, 24]: 20 | Crabgrass, Large plant response rating [10, 25]: 70 | Foxtail, Giant plant response rating [11, 24]: 0 | Foxtail, Giant plant response rating [11, 25]: 30 | Morningglory plant response rating [12, 24]: 20 | Morningglory plant response rating [12, 25]: 70 | Pigweed plant response rating [13, 24]: 20 | Pigweed plant response rating [13, 25]: 70 | Velvetleaf plant response rating [14, 24]: 0 | Velvetleaf plant response rating [14, 25]: 30 | Wheat plant response rating [15, 24]: 0 | Wheat plant response rating [15, 25]: 0 | Corn plant response rating [16, 24]: 0 | Corn plant response rating [16, 25]: 20 | Plant response rating, Rice [17]: 0 | Plant response rating, Sedge, Umbrella [18]: 0 | Plant response rating, Ducksalad [19]: 0 | Plant response rating, Barnyardgrass [20]: 0
